# From US7741493B2, “Heterocyclic compounds as P2X7 ion channel blockers” (Aventis Pharmaceuticals Inc., priority 2003, dated 2010)
# Structures can show the parent of a compound that is named as a salt.
# Target: T1, P2X7 (Homo sapiens, UniProt Q99572)
# T1 sequence (Q99572 1-595): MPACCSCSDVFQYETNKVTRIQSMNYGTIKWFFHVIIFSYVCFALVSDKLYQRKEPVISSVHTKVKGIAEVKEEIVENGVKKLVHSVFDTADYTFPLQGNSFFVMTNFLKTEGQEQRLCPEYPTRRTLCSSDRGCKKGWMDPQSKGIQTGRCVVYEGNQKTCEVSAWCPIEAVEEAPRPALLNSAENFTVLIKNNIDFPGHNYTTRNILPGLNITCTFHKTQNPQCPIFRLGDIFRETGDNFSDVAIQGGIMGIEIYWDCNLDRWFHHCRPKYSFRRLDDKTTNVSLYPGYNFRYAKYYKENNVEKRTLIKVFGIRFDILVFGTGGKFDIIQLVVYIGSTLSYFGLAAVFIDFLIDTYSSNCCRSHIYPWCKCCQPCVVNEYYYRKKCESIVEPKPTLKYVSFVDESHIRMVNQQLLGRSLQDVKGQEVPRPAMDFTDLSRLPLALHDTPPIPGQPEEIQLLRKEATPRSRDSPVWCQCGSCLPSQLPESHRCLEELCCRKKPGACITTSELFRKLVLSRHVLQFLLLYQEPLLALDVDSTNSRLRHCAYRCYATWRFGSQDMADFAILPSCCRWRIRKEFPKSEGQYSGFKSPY
# Assay: YO-PRO-1 dye uptake assay in U373 cells stably expressing P2X7
# Assay type: cell-based
# Design: The complete open reading frame of human P2X7 was amplified from Incyte clone 148057; expressed in transfected cells
# Details: dye uptake through P2X7, U373 cells, 300 μM BzATP, 5 μM YO-PRO-1, test compounds 30 nM to 3 μM; read-out: IC50
# Method in brief: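 U373 cells stably expressing human P2X7 preincubated 20 min at 37° C. with compound (30 nM to 3 μM) in Mg/Ca-free HBSS. YO-PRO-1 (5 μM final) and BzATP (300 μM final) then added for 1.5 h at 37° C.; dye-uptake fluorescence compared with compound-free control.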
row,IC50,SMILES
1,241 nM,"OC(C1=N[C@@H](c2ccccc2)[C@@H](c2ccccc2)N1)c1ccccc1 (stereo partly drawn) [cis-(4,5-diphenyl-4,5-dihydro-1H-imidazol-2-yl)-phenyl-methanol]"
2,120 nM,Fc1ccc(CC2=N[C@@H](c3ccccc3)[C@@H](c3ccccc3)N2)c(Cl)c1 [trifluoroacetate]
3,334 nM,c1ccc([C@H]2NC(C3(c4ccccc4)CC3)=N[C@H]2c2ccccc2)cc1 [trifluoroacetate]
4,243 nM,"Cc1ccccc1CNC1=N[C@@H](c2ccccc2)[C@@H](c2ccccc2)N1 [cis-4,5-diphenyl-2-(2-methylbenzyl)amino-4,5-dihydro-1H-imidazole]"
5,371 nM,"Fc1ccc([C@H]2NC(NCc3ccccc3)=N[C@H]2c2ccc(F)cc2)cc1 [[cis-4,5-bis-(4-Fluorophenyl)-4,5-dihydro-1H-imidazol-2-yl]-benzylamine hydrochloride]"
6,720 nM,"c1ccc([C@H]2NC(CCc3ccccn3)=N[C@H]2c2ccccc2)cc1 [cis-4,5-diphenyl-2-[2-(2-pyridyl)ethyl)-4,5-dihydro-1H-imidazole]"
7,90 nM,"Fc1cccc([C@H]2NC(NCc3ccccc3)=N[C@H]2c2cccc(F)c2)c1 [[cis-4,5-bis-(3-Fluorophenyl)-4,5-dihydro-1H-imidazol-2-yl]-benzylamine hydrochloride]"
8,247 nM,"Fc1ccc(CNC2=N[C@@H](c3ccccc3)[C@@H](c3ccccc3)N2)c(Cl)c1 [cis-4,5-diphenyl-2-(2-chloro-4-fluorobenzyl)amino-4,5-dihydro-1H-imidazole]"
9,625 nM,O=C(Nc1ccccc1)OC(C1=NC(c2ccccc2)C(c2ccccc2)N1)c1ccccc1 (stereo not drawn) [trifluoroacetate]
10,164 nM,"Clc1cccc(CNC2=N[C@@H](c3ccccc3)[C@@H](c3ccccc3)N2)c1 [cis-4,5-diphenyl-2-(3-chlorobenzyl)amino-4,5-dihydro-1H-imidazole]"
11,287 nM,"Cc1ccc([C@H]2NC(NCc3ccc(F)cc3)=N[C@H]2c2ccc(C)cc2)cc1 [[cis-4,5-bis-(4-Methylphenyl)-4,5-dihydro-1H-imidazol-2-yl]-(4-fluorobenzyl)amine hydrochloride]"
12,376 nM,"Cc1cccc(CC2=N[C@@H](c3ccccc3)[C@@H](c3ccccc3)N2)c1 [cis-4,5-diphenyl-2-(3-methylbenzyl)-4,5-dihydro-1H-imidazole]"
13,146 nM,"Fc1cccc([C@H]2NC(CCc3ccccc3)=N[C@H]2c2cccc(F)c2)c1 [cis-4,5-bis(3-fluorophenyl)-2-(2-phenylethyl)-4,5-dihydro-1H-imidazole]"
14,121 nM,"Cc1cccc([C@H]2NC(NCc3cccc(F)c3)=N[C@H]2c2cccc(C)c2)c1 [[cis-4,5-bis-(3-Methylphenyl)-4,5-dihydro-1H-imidazol-2-yl]-(3-fluorobenzyl)amine hydrochloride]"
15,409 nM,"Fc1ccccc1CNC1=N[C@@H](c2ccccc2)[C@@H](c2ccccc2)N1 [cis-4,5-diphenyl-2-(2-fluorobenzyl)amino-4,5-dihydro-1H-imidazole]"
16,110 nM,C[C@H](C1=N[C@@H](c2ccccc2)[C@@H](c2ccccc2)N1)c1ccccc1 [trifluoroacetate]
17,142 nM,Fc1ccc(F)c(CC2=N[C@@H](c3ccccc3)[C@@H](c3ccccc3)N2)c1 [trifluoroacetate]

# More lines, now with the values behind:
row,SMILES,IC50
1,"CC(Cc1ccccc1)C1=N[C@@H](c2ccccc2)[C@@H](c2ccccc2)N1 (relative stereo) [2-[1-Methyl-2-phenylethyl]-cis-4,5-diphenyl-4,5-dihydro-1H-imidazole trifluoroacetate]",570 nM
2,"Fc1ccc(CNC2=N[C@@H](c3ccccc3Cl)[C@@H](c3ccccc3Cl)N2)cc1 [[cis-4,5-bis-(2-Chlorophenyl)-4,5-dihydro-1H-imidazol-2-yl]-(4-fluorobenzyl)amine hydrochloride]",624 nM
3,C[C@@H](CC1=N[C@@H](c2ccccc2)[C@@H](c2ccccc2)N1)c1ccccc1,13 nM
4,"Fc1cccc([C@H]2NC(CCc3ccc(F)c(F)c3)=N[C@H]2c2cccc(F)c2)c1 [2-[2-(3,4-Difluorophenyl)ethyl]-cis-4,5-bis-(3-fluorophenyl)-4,5-dihydro-1H-imidazole]",173 nM
5,"c1ccc([C@H]2NC(COC3CCCCCCC3)=N[C@H]2c2ccccc2)cc1 [2-[(Cyclooctyloxy)methyl]-cis-4,5-diphenyl-4,5-dihydro-1H-imidazole trifluoroacetate]",506 nM
6,C[C@@]1(c2ccccc2)N=C(COC2CCOc3ccccc32)N[C@@H]1c1ccccc1 (stereo partly drawn),490 nM
7,"Fc1ccc(CNC2=N[C@@H](c3cccc(F)c3)[C@@H](c3cccc(F)c3)N2)cc1 [[cis-4,5-bis-(3-Fluorophenyl)-4,5-dihydro-1H-imidazol-2-yl]-(4-fluorobenzyl)amine hydrochloride]",71 nM
8,C[C@@]1(c2ccc(F)cc2)N=C(NCc2cccc(F)c2)N[C@@H]1c1ccc(F)cc1,353 nM
9,"Fc1cccc(CNC2=N[C@@H](c3ccccc3Cl)[C@@H](c3ccccc3Cl)N2)c1 [[cis-4,5-bis-(2-Chlorophenyl)-4,5-dihydro-1H-imidazol-2-yl]-(3-fluorobenzyl)amine hydrochloride]",592 nM
10,"Fc1cc(CNC2=N[C@@H](c3ccccc3)[C@@H](c3ccccc3)N2)cc(F)c1F [(cis-4,5-Diphenyl-4,5-dihydro-1H-imidazol-2-yl)-(3,4,5-trifluorobenzyl)amine hydrochloride]",77 nM
11,"C[C@]1(c2ccccc2)N=C(Cc2ccc(F)cc2)N[C@H]1c1ccccc1 (relative stereo) [2-(4-Fluorobenzyl)-cis-4,5-diphenyl-4-methyl-4,5-dihydro-1H-imidazole trifluoroacetate]",44 nM
12,"C[C@@]1(c2ccccc2)N=C(COc2cccc(F)c2)N[C@@H]1c1ccccc1 (relative stereo) [2-[(3-Fluorophenoxy)methyl]-cis-4,5-diphenyl-4-methyl-4,5-dihydro-1H-imidazole trifluoroacetate]",104 nM
13,"Fc1ccccc1CCNC1=N[C@@H](c2ccccc2)[C@@H](c2ccccc2)N1 [(cis-4,5-Diphenyl-4,5-dihydro-1H-imidazol-2-yl)-[2-(2-fluorophenyl)ethyl]amine hydrochloride]",87 nM
14,"C#CC(CCC)OCC1=N[C@@](C)(c2ccccc2)[C@@H](c2ccccc2)N1 (relative stereo) [2-[(1-Ethynyl-1-butoxy)methyl]-cis-4,5-diphenyl-4-methyl-4,5-dihydro-1H-imidazole hydrochloride]",739 nM
15,"Fc1ccc(CNC2=N[C@@H](c3ccccc3)[C@@H](c3ccccc3)N2)cc1 [(cis-4,5-Diphenyl-4,5-dihydro-1H-imidazol-2-yl)-(4-fluorobenzyl)amine hydrochloride]",96 nM
16,"Fc1ccc(CCC2=N[C@H](c3ccccc3)[C@H](c3ccccc3)N2)cc1F [2-[2-(3,4-Difluorophenyl)ethyl]-cis-4,5-diphenyl-4,5-dihydro-1H-imidazole]",122 nM
17,"COc1cccc(CSC2=N[C@@H](c3ccccc3)[C@@H](c3ccccc3)N2)c1 [2-[(3-Methoxybenzyl)thio]-cis-4,5-diphenyl-4,5-dihydro-1H-imidazole hydrochloride]",987 nM
18,"Fc1ccc(CNC2=N[C@@H](c3ccccc3F)[C@@H](c3ccccc3F)N2)cc1F [[cis-4,5-bis-(2-Fluorophenyl)-4,5-dihydro-1H-imidazol-2-yl]-(3,4-difluorobenzyl)-amine hydrochloride]",312 nM
19,"C[C@@]1(c2ccccc2)N=C(COc2ccccc2)N[C@@H]1c1ccccc1 (relative stereo) [2-[(Phenoxy)methyl]-cis-4,5-diphenyl-4-methyl-4,5-dihydro-1H-imidazole trifluoroacetate]",405 nM
20,"Fc1cccc(CNC2=N[C@@H](c3ccccc3Br)[C@@H](c3ccccc3Br)N2)c1 [[cis-4,5-bis-(2-Bromophenyl)-4,5-dihydro-1H-imidazol-2-yl]-(3-fluorobenzyl)amine hydrochloride]",782 nM
21,"Fc1cccc(CCC2=N[C@@H](c3ccccc3)[C@@H](c3ccccc3)N2)c1 [2-[2-(3-Fluorophenyl)ethyl]-cis-4,5-diphenyl-4,5-dihydro-1H-imidazole trifluoroacetate]",31 nM
22,"COc1ccccc1CCC1=N[C@@H](c2ccccc2)[C@@H](c2ccccc2)N1 [2-[2-(2-Methoxyphenyl)ethyl]-cis-4,5-diphenyl-4,5-dihydro-1H-imidazole trifluoroacetate]",832 nM
23,C[C@@]1(c2ccc(F)cc2)N=C(NCc2ccc(F)cc2)N[C@@H]1c1ccc(F)cc1,139 nM
24,"C[C@@]1(c2ccccc2)N=C(COc2ccccc2Cl)N[C@@H]1c1ccccc1 (relative stereo) [2-[(2-Chlorophenoxy)methyl]-cis-4,5-diphenyl-4-methyl-4,5-dihydro-1H-imidazole hydrochloride]",743 nM
25,C[C@@]1(c2cccc(F)c2)N=C(NCc2cccc(F)c2)N[C@@H]1c1cccc(F)c1,49 nM
